The test system of data set [1] is PAPD5-overexpressing cells. Nature of the data set: LDH cell death assay, PAPD5-overexpressing cells. It counts as cell-based. The method, then:
(§1) SK-N-MC cells (ATCC) were cultured in DMEM (GE Healthcare BioSciences) supplemented with 10% fetal bovine serum and 1% penicillin-streptomycin. Cells were maintained in a 37° C. humidified cell culture incubator supplemented with 5% CO2. Plasmid DNA and siRNA/synthetic miRNA transfection was performed using Lipofectamine 2000 (Thermo Fisher Scientific) and Lipofectamine RNAiMAX (Thermo Fisher Scientific), respectively.
The LDH assay on SK-N-MC cells were performed according to manufacturer's instructions (CytoTox 96 Non-Radioactive Cytotoxicity Assay Kit, Promega).

In data set [2] the test system is TAK1-MKK4-JNK pro-apoptotic signaling in PAPD5-overexpressing cells. As to the kind of experiment: Western blotting of TAK1-MKK4-JNK caspase cascade, PAPD5-overexpressing cells. It counts as cell-based. How it is done:
as §1
Proteins were extracted from SK-N-MC cells or mouse primary cortical neurons using SDS sample buffer. For protein extraction from mice, half of the brain was homogenized in protein lysis buffer (50 mM Tris-HCl, pH 7.6, 150 mM NaCl, 10% NP40, 5% sodium deoxycholate). All protein samples were boiled at 99° C. for 10 minutes, prior to Western blotting. Primary antibodies used were anti-PAPD5 (PA5-46747, 1:1,000) from Invitrogen; anti-p-TAK1 (4536, 1:1,000), anti-t-TAK1 (4505, 1:2,000), anti-p-MKK4 (9156, 1:1,000), anti-t-MKK4 (9152, 1:2,000), anti-p-MKK7 (4171, 1:1,000), anti-t-MKK7 (4172, 1:2,000), anti-p-JNK (9251, 1:2,000), anti-t-JNK (9252, 1:2,000), anti-TAB1 (3226, 1:2,000), anti-TAB2 (3745, 1:2,000), anti-cleaved caspase 3 (9664, 1:500) and anti-myc (2276, 1:2,000) from Cell Signaling Technology; antipolyQ (P1874, 1:1,000) and anti-HA (H3663, 1:2,000) from Sigma-Aldrich; anti-YY1 (ab109237, 1:2000) and anti-β-tubulin (ab6046, 1:2,000) from Abcam, and anti-GFP (JL-8, 1:4,000) from Clontech. Secondary antibodies used were goat anti-rabbit (11035-045, 1:5,000) and goat anti-mouse (115-035-062, 1:5,000) from Jackson ImmunoResearch.

Data set [3] deals with JNK phosphorylation and caspase 3 cleavage in EGFP-Htt1-550CAG89-expressing neurons. As to the kind of experiment: Western blotting, EGFP-Htt1-550CAG89-expressing primary cortical neurons. It counts as cell-based, mouse. The method, then: E16-embryos of C57BL6J wildtype mice were sacrificed to obtain the mouse primary cortical neurons as previously described (Peng et al., 2021). In brief, cortical lobes were dissected out in ice-cold PBS-glucose. Meninges were removed and cortices were digested in trypsin solution. Primary cortical neurons were cultured on poly-[…]-coated (0.05 mg/ml) glass coverslips in 24-well plates (50,000 cells per well) and maintained in a 37° C. humidified cell culture incubator supplemented with 5% CO2. Prior to transfection and drug treatment, neurons were cultured for 5 days. Mature primary neurons were transfected with DNA constructs together with Lipofectamine LTX and Plus Reagent (Thermo Fisher Scientific). Following the manufacturer's protocol, at 4 hours post-transfection culture medium was refreshed and 400 nM of BCH001 was added to the medium. Neurons were further incubated for 72 hours to allow recovery and ectopic expression. Proteins were extracted from SK-N-MC cells or mouse primary cortical neurons using SDS sample buffer. For protein extraction from mice, half of the brain was homogenized in protein lysis buffer (50 mM Tris-HCl, pH 7.6, 150 mM NaCl, 10% NP40, 5% sodium deoxycholate). All protein samples were boiled at 99° C. for 10 minutes, prior to Western blotting. […]
(In general: In western blotting, separated proteins are transferred to a membrane and probed.)

One molecule from US20260183276A1, “miRNA DYSREGULATION CORRECTION AS A STRATEGY TO TREAT HUNTINGTON'S DISEASE” (The Chinese University of Hong Kong, priority 2022, published 2026) can be followed below.

SMILES strings stand for the structures.

Turning to `CCOC(=O)c1cnc2ccc(OC(F)(F)F)cc2c1Nc1ccccc1C(=O)O` [BCH001], the PAPD5-induced cell death result in data set [1] (200 nM BCH001, FIG. 4A) is “sufficient to suppress”. Moreover, the “cell death induced by the compound” value in data set [1] (400 nM, FIG. 4A) is “does not induce cell death”. In addition, in data set [1] (PAPD5 overexpression), the PAPD5-induced cell death entry is listed as “suppressed in a dose-dependent manner”. For the same molecule, in data set [2], the TAK1/MKK4/JNK phosphorylation result is listed as “suppressed in a dose-dependent manner” and the “caspase 3 cleavage” value is reported as “suppressed in a dose-dependent manner”. Also, in data set [3], the JNK phosphorylation result is “attenuated” and the “caspase 3 cleavage” value is reported as “attenuated”.
